# Experimental data published in PMC8607231, “Generation of KS-133 as a Novel Bicyclic Peptide with a Potent and Selective VIPR2 Antagonist Activity that Counteracts Cognitive Decline in a Mouse Model of Psychiatric Disorders” (Frontiers in Pharmacology, 2021).
# Where a SMILES comes first, the peptide text is derived from it. Bridges are numbered along the chain shown (N, C = ends). [ ]: non-standard residue; d: D form. Dap = NC[C@H](N)C(=O)O
# How the values were obtained:
# human VIPR1 = molecular target: T1, human VIPR1 (Homo sapiens, UniProt P32241); assay: Calcium influx assay, antagonist activity against VIP-VIPR1 signaling; type: cell-based; details: ligand VIP (25 nM) at EC80; CHO-K1 cells; n = 4 wells, ± S.E.M; read-out: Ca influx assay [IC50 (nM)] VIPR1
# T1 construct: host or cells: CHO-K1
# T1 sequence (P32241 31-457): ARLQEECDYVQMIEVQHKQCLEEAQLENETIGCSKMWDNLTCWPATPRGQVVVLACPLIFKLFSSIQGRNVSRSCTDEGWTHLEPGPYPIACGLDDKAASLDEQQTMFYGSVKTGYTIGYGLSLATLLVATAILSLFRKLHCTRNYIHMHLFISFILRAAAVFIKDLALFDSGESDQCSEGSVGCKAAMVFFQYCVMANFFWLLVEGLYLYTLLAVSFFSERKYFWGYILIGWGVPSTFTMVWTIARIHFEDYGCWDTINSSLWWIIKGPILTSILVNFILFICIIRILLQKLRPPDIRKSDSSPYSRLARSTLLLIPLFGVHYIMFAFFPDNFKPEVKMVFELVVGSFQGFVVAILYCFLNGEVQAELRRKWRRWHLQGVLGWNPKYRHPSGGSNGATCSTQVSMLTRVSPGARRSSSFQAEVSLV
# Protocol: (§1) Evaluation of antagonist activities of peptides against VIP-VIPR1, VIP-VIPR2, and PACAP-PAC1 signaling pathways and agonistic activity of KS-133 at VIPR2 was carried out by Eurofins DiscoverX (Fremont, CA, United States). Intracellular calcium mobilization was monitored using a calcium-sensitive dye loaded in CHO-K1 cells expressing human VIPR1 (ITEM 86-0030P-2243AN), VIPR2 (ITEM 86-0030P-2244AN), and PAC1 (ITEM 86-0030P-2066AN). The cells were preincubated with antagonistic peptides for 30 min at room temperature in the dark. After addition of the ligand at EC80, calcium mobilization was immediately monitored by FLIPR Tetra for 2 min. Cyclic AMP production in CHO-K1 cells expressing human VIPR2 was evaluated using HitHunter® cAMP assays (antagonist mode: ITEM 86-0007P-2362AN; agonist mode: ITEM 86-0007P-2362AG). The cells were preincubated with antagonistic peptides for 30 min at room temperature. After addition of the ligand at EC80, cells were further incubated for 30 min at room temperature. Cells were lysed and the cAMP content of the cell lysate was determined by the β-galactosidase-based enzyme fragment complementation assay ([Eglen, 2002]). IC50 values were estimated by the following equation: IC50 = 10^[Log(A/B) × (50–D)/(C–D) + Log(B)], where A is the concentration at >50% inhibition, B is the concentration at <50% inhibition, C is the inhibition rate at concertation A, and D is the inhibition rate at concertation B.
# (§2) First, the antagonistic activities of parental VIpep-3, KS-132, KS-133 (monocyclic) (no bridging between Lys^7 and Asp^11), and KS-133 against human VIPR1, VIPR2, and PAC1 were evaluated by a calcium influx assay. After antagonistic peptide treatment for 30 min, ligand at a concentration of EC80 was added to the cells and then calcium signaling was measured.
# (§3) FIGURE 3 Antagonistic/agonistic activities of peptides in the calcium influx and cAMP assays. For evaluation of the antagonistic activity, the cells were preincubated with antagonistic peptides for 30 min. In the calcium influx assay, after addition of ligand at EC80, calcium mobilization was monitored immediately (see details in the Methods section) (n = 4 wells for each treatment). In the cAMP assay, after a 30 min incubation with the ligand at EC80, cAMP production in cells was measured (see details in the Methods section) (n = 4 wells for each treatment).
# human PAC1 = molecular target: T2, human PAC1 (Homo sapiens, UniProt P41586); assay: Calcium influx assay, antagonist activity against PACAP-PAC1 signaling; type: cell-based; details: ligand PACAP (35 nM) at EC80; CHO-K1 cells; n = 4 wells, ± S.E.M; read-out: Ca influx assay [IC50 (nM)] PAC1
# T2 construct: host or cells: CHO-K1
# T2 sequence (P41586 21-468): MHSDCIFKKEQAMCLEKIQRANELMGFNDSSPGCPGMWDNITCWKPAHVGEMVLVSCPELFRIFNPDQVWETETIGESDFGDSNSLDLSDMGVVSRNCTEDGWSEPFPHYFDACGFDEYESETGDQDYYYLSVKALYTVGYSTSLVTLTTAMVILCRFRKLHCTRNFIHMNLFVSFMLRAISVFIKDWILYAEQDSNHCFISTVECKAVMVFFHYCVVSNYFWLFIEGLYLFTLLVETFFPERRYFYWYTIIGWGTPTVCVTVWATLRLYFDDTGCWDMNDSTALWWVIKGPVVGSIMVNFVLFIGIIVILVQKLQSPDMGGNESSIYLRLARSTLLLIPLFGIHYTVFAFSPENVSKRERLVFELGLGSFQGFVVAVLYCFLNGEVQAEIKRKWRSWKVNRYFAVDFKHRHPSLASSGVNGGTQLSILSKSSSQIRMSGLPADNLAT
# Protocol: as §1, §2, §3
# [1] = Peptide stability in rat plasma (RP-HPLC); type: in vitro ADME; details: for Stability in rat plasma / RP-HPLC peak area, incubation time 24 h / remaining at 24 h, 0.476 mM: 37°C, 24 h; for RP-HPLC peak area, Input (NT): no plasma treatment; for RP-HPLC peak area, incubation time 24 h / remaining at 24 h, 0.476 mM / RP-HPLC peak area, immediately after mixing / Residual rate, immediately after mixing: rat plasma; for remaining at 24 h, 0.476 mM: read-out: Residual rate, incubation time 24 h
# Protocol: Each peptide (10 mM, 1 μl) was incubated with rat plasma (20 μl) prepared in-house. Immediately after mixing with plasma and after 24 h of incubation at 37°C, 80% acetonitrile (200 μl) was added to extract VIpep-3 and acetonitrile (200 μl) was added to extract KS-132, KS-133(monocyclic), and KS-133. The mixture was stored for 10 min on ice and then centrifuged at 20,000 × g for 10 min at 4°C. The supernatant was recovered and directly applied to RP-HPLC to determine the remaining amount of unmodified peptides in the sample.
# The stability of peptides was evaluated in rat plasma. A peptide was incubated in rat plasma at 37°C for 0 and 24 h and the remaining amount of peptide was determined by RP-HPLC. By comparison with the peak area of the peptide, the remaining amount of the peptide after plasma incubation was estimated. […] KS-133(monocyclic) may form a pseudo bicyclic structure by ionic bond interaction between side chains of Lys and Asp.
# VIPR2 = tested on: VIPR2; parameters: method as in Sakamoto et al. (2018); details: versus VIPR1 and PAC1; ref Sakamoto et al. (2018); cited from earlier work
# human VIPR2 = molecular target: T3, human VIPR2 (Homo sapiens, UniProt P41587); assay: Calcium influx assay, antagonist activity against VIP-VIPR2 signaling; type: cell-based; details: ligand VIP (150 nM) at EC80; CHO-K1 cells; n = 4 wells, ± S.E.M; read-out: Ca influx assay [IC50 (nM)] VIPR2
# T3 construct: host or cells: CHO-K1
# T3 sequence (P41587 24-438): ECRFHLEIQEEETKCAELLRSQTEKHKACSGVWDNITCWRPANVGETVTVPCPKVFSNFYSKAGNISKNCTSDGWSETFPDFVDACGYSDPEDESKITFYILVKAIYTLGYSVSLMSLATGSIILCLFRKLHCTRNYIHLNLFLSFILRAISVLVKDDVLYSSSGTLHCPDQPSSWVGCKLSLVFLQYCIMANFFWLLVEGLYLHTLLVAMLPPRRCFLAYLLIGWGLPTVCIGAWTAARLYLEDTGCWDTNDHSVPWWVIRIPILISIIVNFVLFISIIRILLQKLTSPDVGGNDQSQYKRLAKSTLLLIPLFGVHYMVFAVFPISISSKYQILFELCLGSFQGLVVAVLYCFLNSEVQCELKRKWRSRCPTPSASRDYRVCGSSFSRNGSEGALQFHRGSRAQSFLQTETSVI
# Protocol: as §1, with “The cells were preincubated with antagonistic peptides for 30 min at room temperature. After addition of the ligand at EC80, cells were further incubated for 30 min at room temperature.” left out, “IC50 values were estimated by the following equation: IC50 = 10^[Log(A/B) × (50–D)/(C–D) + Log(B)], where A is the concentration at >50% inhibition, B is the concentration at <50% inhibition, C is the inhibition rate at concertation A, and D is the inhibition rate at concertation B.” left out
# as §2, with “measured. […]” for “measured.”
IC50 (human VIPR1),IC50 (human PAC1),Stability in rat plasma [1],"RP-HPLC peak area, Input (NT) [1]","RP-HPLC peak area, incubation time 24 h [1]","remaining at 24 h, 0.476 mM [1]","RP-HPLC peak area, immediately after mixing [1]","Residual rate, immediately after mixing [1]",IC50 (human VIPR2),Structure (SMILES),Receptor selectivity for VIPR2 compared with the two other receptor subtypes (VIPR2)
> 5000 nM,> 5000 nM,significantly degraded within 24 h,1299273,95354,10.6%,900813,100%,–,"CC(=O)N[C@H]1CSSC[C@@H](C(=O)N[C@H](C(=O)N[C@@H](CC(C)C)C(=O)N[C@@H](CC(C)C)C(=O)N[C@@H](CC(C)C)C(=O)N[C@@H](CCCNC(=N)N)C(=O)N[C@@H](CO)C(=O)O)[C@@H](C)O)NC(=O)[C@H](CC(C)C)NC(=O)[C@H](CCCNC(=N)N)NC(=O)[C@H](CCCNC(=N)N)NC(=O)[C@@H]2CCCN2C(=O)[C@H](CC(C)C)NC(=O)[C@H](Cc2ccc(O)cc2)NC(=O)[C@@H]2CCCN2C(=O)[C@@H]2CCCN2C1=O [VIpep-3, Ac-c(CPPYLPRRLC)TLLLRS-OH, reference compound] (Ac-CPPYLPRRLCTLLLRS-OH; disulfide 1-10)",more than 50 fold
> 5000 nM,> 5000 nM,significantly degraded within 24 h,1460241,696652,57.8%,1206247,100%,33.4 ± 2.8 nM,"CC[C@H](C)[C@H](NC(=O)[C@H](CC(C)C)NC(=O)[C@H](CN)NC(=O)[C@@H]1CSSC[C@H](NC(C)=O)C(=O)N2CCC[C@H]2C(=O)N2CCC[C@H]2C(=O)N[C@@H](Cc2ccc(O)cc2)C(=O)N[C@@H](CC(C)C)C(=O)N2CCC[C@H]2C(=O)N[C@@H](CN)C(=O)N[C@@H](Cc2ccc(O)cc2)C(=O)N[C@@H](CC(C)C)C(=O)N1)C(N)=O [KS-132, Ac-c(Cys-Pro-Pro-Tyr-Leu-Pro-Dap-Tyr-Leu-Cys)-Dap-Leu-Ile-NH2] (Ac-CPPYLP[Dap]YLC[Dap]LI-NH2; disulfide 1-10)",–
> 5000 nM,> 5000 nM,also highly stable,768775,724176,97.3%,744262,100%,56 ± 3.9 nM,CC[C@H](C)[C@H](NC(=O)[C@H](CC(C)C)NC(=O)[C@H](CC(=O)O)NC(=O)[C@@H]1CSSC[C@H](NC(C)=O)C(=O)N2CCC[C@H]2C(=O)N2CCC[C@H]2C(=O)N[C@@H](Cc2ccc(O)cc2)C(=O)N[C@@H](CC(C)C)C(=O)N2CCC[C@H]2C(=O)N[C@@H](CCCCN)C(=O)N[C@@H](Cc2ccc(O)cc2)C(=O)N[C@@H](CC(C)C)C(=O)N1)C(N)=O [KS-133(monocyclic)] (Ac-CPPYLPKYLCDLI-NH2; disulfide 1-10),–
